The values below come from patent US11136321B2, “Tricyclic compounds” (ALIGOS THERAPEUTICS, INC., priority 2019, dated 2021).

Bounds are passed on as bounds.

This test has as its system HBV. The test can be described thus: HBV-DNA antiviral assay using HepG2.117 cells. It is filed as cell-based, genotype D HBV. The note with it: intracellular HBV DNA by qPCR, 3 days incubation. The method, then:
The following assay procedure describes the HBV antiviral assay, using HepG2.117 cells, which carry a stably integrated genotype D HBV genome under the control of a Tet-off promoter, and intracellular HBV DNA quantification as endpoint. Cell viability is assessed in parallel by measuring the intracellular ATP content using ATPlite (Perkin Elmer).
On day 0, HepG2.117 cells (which are maintained in routine cell culture with doxycycline present in the medium at a final concentration of 1 μg/mL) were seeded in 96-well plates (white with clear bottom) at a density of 2.0×10^4 cells/well (0.1 mL/well) in medium without doxycycline to induce pgRNA transcription and subsequent formation of HBV particles. The cells were incubated at 37° C. and 5% CO2.
On day 1, medium was removed from each well, the test articles were diluted in culture medium without doxcycyline and 100 μL was added to cell culture wells (9 concentrations, 4-fold dilution). For each plate, 6 untreated (merely DMSO) wells were included. The final concentration of DMSO in the culture medium was 2%. Each plate was prepared in duplicate (one for HBV DNA extraction, one for ATPlite measurement). The cells were incubated at 37° C. and 5% CO2 for 3 days.
On day 4, cell viability was assessed using ATPlite and cell lysates were prepared for HBV DNA extraction and subsequent quantification by qPCR.
Medium was removed from each well and 100 μL of 0.33% NP-40 in H2O was added to each well. Plates were sealed, incubated at 4° C. for 5 mins, vortexed extensively and centrifuged briefly. Next, 35 μL of lysate was added to 65 μL QuickExtract DNA Extraction Solution (Epicentre) in a PCR plate for each well. PCR plate was incubated at 65° C. for 6 mins, 98° C. for 2 mins and finally cooled to 4° C. HBV DNA was then quantified by qPCR with HBV-specific primers and probes as specified in Table 1 using the Bio-Rad SSOAdvanced Universal Probes Supermix on a CFX96 machine (Bio-Rad). The PCR cycle program consisted of 95° C. for 3 mins, followed by 40 cycles at 95° C. for 10 sec and 60° C. for 30 sec.
A DNA standard was prepared by dilution of an IDT gBlock corresponding to the amplicon with concentrations ranging from 10^2 to 10^8 copies/input (i.e. per 4 μL) and used to generate a standard curve by plotting Cq values vs. HBV DNA standard concentration. The quantity of HBV DNA in each sample was determined by interpolating from the standard curve.
Cell viability was calculated as follows: % Cell viability=(luminescence value of test sample)/(average luminescence value of 2% DMSO control)×100%. HBV DNA inhibition was calculated as follows: 100−(HBV DNA copy number of test sample)/(average HBV DNA copy number of 2% DMSO control)×100%. No normalization to entecavir was required due to the excellent dynamic window of this assay. The CC50, EC50 and EC90 values were determined by dose-response curves fitted by GraphPad Prism using “log (agonist) vs. response—Variable slope”.
(In general: In qPCR the cycle at which signal appears reflects the starting amount.)

For the molecule `CNC(=O)c1ccc(-n2c(=O)c3c(n4ncc(Cc5ccccc5)c24)CN(C(=O)c2ccc(Br)c(Cl)c2)C(C)C3)cc1` (single isomer, unassigned) [Compound 72, 4-[(11S*)-5-benzyl-12-(4-bromo-3-chlorobenzoyl)-11-methyl-8-oxo-2,3,7,12-tetraazatricyclo[7.4.0.0^[2,6]]trideca-1(9),3,5-trien-7-yl]-N-methylbenzamide], the concentration giving a half-maximal response (EC50) (as a rule, the concentration needed to bring the measured effect to its halfway point) is at most 100 nM.

`CC(C)NC(=O)c1cnn2c3c(c(=O)n(-c4ccccc4)c12)CCN(C(=O)c1ccc(Cl)c(Cl)c1)C3` [Compound 16, 12-(3,4-dichlorobenzoyl)-N-isopropyl-8-oxo-7-phenyl-2,3,7,12-tetraazatricyclo[7.4.0.0^[2,6]]trideca-1(9),3,5-triene-5-carboxamide] had an EC50 of over 5000 nM. `CC(C)NC(=O)c1ccc(-n2c(=O)c3c(n4ncc(Cc5ccccc5)c24)CN(C(=O)c2ccc(Br)c(Cl)c2)CC3)cc1` [Compound 64, 4-[5-benzyl-12-(4-bromo-3-chloro-benzoyl)-8-oxo-2,3,7,12-tetrazatricyclo [7.4.0.0 2,6]trideca-1(9),3,5-trien-7-yl]-N-isopropyl-benzamide] yielded an EC50 (Hepatitis B virus, 72 h) of 500 to 5000 nM. As for `CNC(=O)c1ccc(-n2c(=O)c3c(n4ncc(Cc5ccc(C#N)cc5)c24)CN(C(=O)c2ccc(Cl)c(Cl)c2)CC3)cc1` [Compound 48, 4-[5-[(4-cyanophenyl)methyl]-12-(3,4-dichlorobenzoyl)-8-oxo-2,3,7,12-tetrazatricyclo [7.4.0.0 2,6]trideca-1(9),3,5-trien-7-yl]-N-methyl-benzamide], the concentration for a half-maximal effect (EC50) (Hepatitis B virus, 72 h) was at most 100 nM. For the molecule `CNC(=O)c1ccc(-n2c(=O)c3c(n4ncc(Nc5ccc(F)cc5)c24)CN(C(=O)c2ccc(Br)c(C#N)c2)CC3)cc1` [Compound 63, 4-[12-(4-bromo-3-cyano-benzoyl)-5-(4-fluoroanilino)-8-oxo-2,3,7,12-tetrazatricyclo [7.4.0.0 2,6]trideca-1(9),3,5-trien-7-yl]-N-methyl-benzamide], the half-maximal effective concentration (EC50) (Hepatitis B virus, 72 h) is 100 to 500 nM. Consider `CNC(=O)c1ccc(-n2c(=O)c3c(n4ncc(NCc5ccc(OC(F)(F)F)cc5)c24)CN(C(=O)c2ccc(Br)c(Cl)c2)CC3)cc1` [Compound 45, 4-[12-(4-bromo-3-chloro-benzoyl)-8-oxo-5-[[4-(trifluoromethoxy)phenyl]methylamino]-2,3,7,12-tetrazatricyclo [7.4.0.0 2,6]trideca-1(9),3,5-trien-7-yl]-N-methyl-benzamide], for which the EC50 (Hepatitis B virus, 72 h) is at most 100 nM. Where the note is “Hepatitis B virus, 72 h”, `CNC(=O)c1ccc(-n2c(=O)c3c(n4ncc(Cc5ccc(OC)cc5F)c24)CN(C(=O)c2ccc(Br)c(C#N)c2)CC3)cc1` [Compound 86, 4-[12-(4-bromo-3-cyano-benzoyl)-5-[(2-fluoro-4-methoxy-phenyl)methyl]-8-oxo-2,3,7,12-tetrazatricyclo [7.4.0.0 2,6]trideca-1(9),3,5-trien-7-yl]-N-methyl-benzamide] registered an EC50 of 100 to 500 nM.

The molecule `CC(C)c1cnn2c3c(c(=O)n(-c4ccccc4)c12)CCN(C(=O)c1ccc(Br)c(Cl)c1)C3` [Compound 13, 12-(4-bromo-3-chlorobenzoyl)-5-isopropyl-7-phenyl-2,3,7,12-tetraazatricyclo[7.4.0.0^[2,6]]trideca-1(9),3,5-trien-8-one] came in with an EC50 (Hepatitis B virus, 72 h) of 500 to 5000 nM. In turn, `COc1cccc(-n2c(=O)c3c(n4ncc(NCc5ccccc5)c24)CN(C(=O)c2ccc(Br)c(Cl)c2)CC3)c1` [Compound 28, 5-(benzylamino)-12-(4-bromo-3-chloro-benzoyl)-7-(3-methoxyphenyl)-2,3,7,12-tetrazatricyclo [7.4.0.0 2,6] trideca-1(9),3,5-trien-8-one] showed an EC50 (Hepatitis B virus, 72 h) of 100 to 500 nM. Take `CC(C)CC(=O)Nc1cnn2c3c(c(=O)n(-c4ccccc4)c12)CCN(C(=O)c1ccc(Cl)c(Cl)c1)C3` [Compound 17, N-[12-(3,4-dichlorobenzoyl)-8-oxo-7-phenyl-2,3,7,12-tetraazatricyclo[7.4.0.0^[2,6]]trideca-1(9),3,5-trien-5-yl]-3-methylbutanamide]: the EC50 was over 5000 nM. Molecule `CNC(=O)c1ccc(-n2c(=O)c3c(n4ncc(N[C@@H](C)c5ccccc5)c24)CN(C(=O)c2ccc(Br)c(Cl)c2)CC3)cc1` (stereo in doubt) [Compound 74, 4-[12-(4-bromo-3-chloro-benzoyl)-8-oxo-5-[[rac-(1S)-1-phenylethyl]amino]-2,3,7,12-tetrazatricyclo [7.4.0.0 2,6]trideca-1(9),3,5-trien-7-yl]-N-methyl-benzamide] showed an EC50 (Hepatitis B virus, 72 h) of at most 100 nM. On the same count and under the same terms, then `CNC(=O)c1ccc(-n2c(=O)c3c(n4ncc(Nc5ccccc5)c24)CN(C(=O)c2ccc(Cl)c(Cl)c2)CC3)cc1` [Compound 39, 4-[5-anilino-12-(3,4-dichlorobenzoyl)-8-oxo-2,3,7,12-tetrazatricyclo [7.4.0.0 2,6]trideca-1(9),3,5-trien-7-yl]-N-methyl-benzamide], with at most 100 nM. `CNC(=O)c1ccc(-n2c(=O)c3c(n4ncc(NCc5ccc(C#N)cc5)c24)CN(C(=O)c2ccc(Cl)c(Cl)c2)CC3)cc1` [Compound 51, 4-[5-[(4-cyanophenyl)methylamino]-12-(3,4-dichlorobenzoyl)-8-oxo-2,3,7,12-tetrazatricyclo [7.4.0.0 2,6]trideca-1(9),3,5-trien-7-yl]-N-methyl-benzamide] came in with an EC50 (Hepatitis B virus, 72 h) of 500 to 5000 nM. With `CNC(=O)c1ccc(-n2c(=O)c3c(n4ncc(Cc5ccccc5)c24)CN(C(=O)c2ccc(Br)c(C#N)c2)CC3)cc1` [Compound 37, 4-[5-benzyl-12-(4-bromo-3-cyano-benzoyl)-8-oxo-2,3,7,12-tetrazatricyclo [7.4.0.0 2,6]trideca-1(9),3,5-trien-7-yl]-N-methyl-benzamide], the EC50 (Hepatitis B virus, 72 h) was at most 100 nM. `N#Cc1cc(C(=O)N2CCc3c(n4ncc(Cc5ccccc5)c4n(-c4ccc(C(=O)NC5CC5)cc4)c3=O)C2)ccc1Br` [Compound 76, 4-[5-benzyl-12-(4-bromo-3-cyano-benzoyl)-8-oxo-2,3,7,12-tetrazatricyclo [7.4.0.0 2,6]trideca-1(9),3,5-trien-7-yl]-N-cyclopropyl-benzamide]: the EC50 (Hepatitis B virus, 72 h) was over 5000 nM. `O=C(c1ccc(Br)c(Cl)c1)N1CCc2c(n3nccc3n(-c3ccccc3)c2=O)C1` [Compound 5, 12-(4-bromo-3-chlorobenzoyl)-7-phenyl-2,3,7,12-tetraazatricyclo[7.4.0.0^[2,6]]trideca-1(9),3,5-trien-8-one] gave an EC50 of 500 to 5000 nM. Where the note is “Hepatitis B virus, 72 h”, `CNC(=O)c1ccc(-n2c(=O)c3c(n4ncc(NCc5ccc(F)cc5)c24)CN(C(=O)c2ccc(Br)c(Cl)c2)CC3)cc1` [Compound 67, 4-[12-(4-bromo-3-chloro-benzoyl)-5-[(4-fluorophenyl)methylamino]-8-oxo-2,3,7,12-tetrazatricyclo [7.4.0.0 2,6]trideca-1(9),3,5-trien-7-yl]-N-methyl-benzamide] came in with an EC50 of at most 100 nM. As for `CNC(=O)c1ccc(-n2c(=O)c3c(n4ncc(NCc5ccccc5)c24)CN(C(=O)c2ccc(Br)c(Cl)c2)CC3)cc1` [Compound 47, 4-[5-(benzylamino)-12-(4-bromo-3-chloro-benzoyl)-8-oxo-2,3,7,12-tetrazatricyclo [7.4.0.0 2,6]trideca-1(9),3,5-trien-7-yl]-N-methyl-benzamide], the EC50 (Hepatitis B virus, 72 h) is at most 100 nM. `COc1ccc(-n2c(=O)c3c(n4ncc(NC(=O)C(C)C)c24)CN(C(=O)c2ccc(Cl)c(Cl)c2)CC3)cc1` [Compound 22, N-[12-(3,4-dichlorobenzoyl)-7-(4-methoxyphenyl)-8-oxo-2,3,7,12-tetrazatricyclo [7.4.0.0^2,6]trideca-1(9),3,5-trien-5-yl]-2-methyl-propanamide] showed an EC50 of over 5000 nM. Take `CC(C)CNC(=O)c1cnn2c3c(c(=O)n(-c4ccccc4)c12)CCN(C(=O)c1ccc(Cl)c(Cl)c1)C3` [Compound 19, 12-(3,4-dichlorobenzoyl)-N-isobutyl-8-oxo-7-phenyl-2,3,7,12-tetrazatricyclo [7.4.0.0^2,6] trideca-1(9),3,5-triene-5-carboxamide]: the EC50 (Hepatitis B virus, 72 h) is over 5000 nM. `Cc1cnn2c3c(c(=O)n(-c4ccccc4)c12)CCN(C(=O)c1ccc(Br)c(F)c1)C3` [Compound 8, 12-(4-bromo-3-fluorobenzoyl)-5-methyl-7-phenyl-2,3,7,12-tetraazatricyclo[7.4.0.0^[2,6]]trideca-1(9),3,5-trien-8-one] came in with an EC50 (Hepatitis B virus, 72 h) of 500 to 5000 nM.
